Data reported in article PMC5814268, “Antitumor activity of HPA3P through RIPK3-dependent regulated necrotic cell death in colon cancer” (Oncotarget, 2018).

How the values were obtained:
Format in all cases: cell-based, human
[1] = system: colon cancer cell lines; assay: MTT assay, cell viability in colon cancer cell lines; conditions: comparison of HPA3P with anticancer drugs
Description: (§1) The cells were plated in 96-well plates at a density of 2 × 10^4 cells per well. After incubating overnight, the cells were treated with HPA3, HPA3P, HPA3P2, oxaliplatin, and 5-FU at various concentrations. After the cells had incubated for 6 h or 24 h, the culture medium was replaced with fresh medium. Twenty microlitres of a 5 mg/ml stock solution of 3-(4,5-dimetylthiazol-2-yl)-2,5-diphenyltetrazolium bromide (Sigma Aldrich) was added to each well, and the cells were incubated for 1 h at 37°C in a humidified atmosphere of 5% CO2. After removal of the supernatant, 100 μl of DMSO was added to each well. The plates were subsequently incubated on a horizontal shaker for 20 min at room temperature, and the optical density was measured at an absorbance of 570 nm using a microplate reader (SPECTRA MAX PLUS, Molecular Devices, CA, USA).

[2] = system: HCT116 p53+/+ cells; assay: MTT assay, HCT116 p53+/+; conditions: for restoration of cell viability in HPA3P-treated cells: pretreated with 30 μM Nec-1s or 3 μM GSK΄872 for 2 h, then HPA3P, Figure 5B-5C
Description: The cell lysates were analysed for RIPK1 and RIPK3 expression by western blotting. […] The cells were subsequently treated with HPA3P. HPA3P-induced cytotoxicity was measured by MTT assay. […] The cell lysates were analysed by western blot analysis. […] The cells were stained with PI for flow cytometric analysis. (F) The cells were treated with 30 μM HPA3P for the indicated times. RIPK3 expression was analysed by western blotting. […] Cell viability was measured by MTT assay. ^*p < 0.05, ^**p < 0.01 indicate a significant difference between the indicated groups. NS, not significant. (H) The colon cancer cell lysates used in this study were analysed by western blotting. (I) Schematic diagram of HPA3P-induced necroptosis.
as §1

[3] = system: HCT116 p53+/+ cells; assay: PI staining analysed by flow cytometry, HCT116 p53+/+; conditions: 3 μM GSK΄872 for 2 h and/or 30 μM HPA3P for 6 h, Figure 5E
Description: Figure 3 HPA3P-induced necrosis and morphological changes in human colon cancer cell lines All cell lines were treated with HPA3P for 30 min and then stained with Hoechst 33342/PI or PI alone. (A) Pictures of Hoechst 33342/PI-stained cells were taken using an Olympus IX71 fluorescence microscope (magnification LCAch N 20X). (B) PI-stained cells were analysed by flow cytometry. (C) Morphological changes in colon cancer cells treated with HPA3P for 5 min were observed using an Olympus IX71 light microscope (magnification LUCPlaFL N 40X). The black arrows indicate membrane blebs. […] Morphological changes were observed under an Olympus IX71 fluorescence microscope (magnification LUCPlaFL N 40X). […]
Figure 5 Low concentrations of HPA3P induce RIPK3-dependent necroptosis in HCT116 p53^+/+ cells (A) HCT116 p53^+/+ cells were treated with HPA3P for 6 h. The cell lysates were analysed for RIPK1 and RIPK3 expression by western blotting. […] HPA3P-induced cytotoxicity was measured by MTT assay. […] The cell lysates were analysed by western blot analysis. […] RIPK3 expression was analysed by western blotting. […] Cell viability was measured by MTT assay. ^*p < 0.05, ^**p < 0.01 indicate a significant difference between the indicated groups. […] (H) The colon cancer cell lysates used in this study were analysed by western blotting. […]

[4] = system: RIPK3; assay: RIPK3 expression, western blot in HCT116 p53+/+ cells; conditions: 3 μM GSK΄872 pretreatment, Figure 5C
Description: Figure 5 Low concentrations of HPA3P induce RIPK3-dependent necroptosis in HCT116 p53^+/+ cells (A) HCT116 p53^+/+ cells were treated with HPA3P for 6 h. The cell lysates were analysed for RIPK1 and RIPK3 expression by western blotting. The cells were pretreated with 30 μM Nec-1s (B) or 3 μM GSK΄872 (C) for 2 h and (D) transfected with negative-control (scramble), RIPK1, RIPK3, and MLKL siRNA for 24 h. The cells were subsequently treated with HPA3P. HPA3P-induced cytotoxicity was measured by MTT assay. (B–D) The cells were treated with Nec-1s or GSK΄872, and transfected with siRNA for 24 h. The cell lysates were analysed by western blot analysis. (E) The cells were treated with 3 μM GSK΄872 for 2 h and subsequently treated with 30 μM HPA3P for 6 h. The cells were stained with PI for flow cytometric analysis. […] RIPK3 expression was analysed by western blotting. […] Cell viability was measured by MTT assay. ^*p < 0.05, ^**p < 0.01 indicate a significant difference between the indicated groups. […] (H) The colon cancer cell lysates used in this study were analysed by western blotting. […]
The cells were plated in 6-well plates at a density of 1 × 10^6 cells per well. […] After incubating for 6 h or 24 h, the cells were scraped, and the proteins were quantified by the Bradford method. […] The reaction was detected using a Clarity™ Western ECL Substrate (BioRad, CA, USA). […]

[5] = system: LoVo cells; assay: MTT assay, LoVo; conditions: 24 h, Figure 4E
Description: as §1

[6] = system: HT-29 cells; assay: MTT assay, HT-29; conditions: HT-29, 24 h, Figure 4E
Description: as §1

[7] = system: SW480 cells; assay: MTT assay, SW480; conditions: SW480, 24 h, Figure 4E
Description: as §1

[8] = system: cleaved-caspase 3 and cleaved-PARP; assay: Western blot for apoptosis markers in colon cancer cell lines; conditions: whole-cell lysates, 24 h, staurosporine as positive control, Figure 1C
Description: The cells were plated in 6-well plates at a density of 1 × 10^6 cells per well. After incubating overnight, the cells were treated with HPA3P at the indicated concentration. After incubating for 6 h or 24 h, the cells were scraped, and the proteins were quantified by the Bradford method. The proteins were resolved on SDS-PAGE and transferred to PVDF membranes (Millipore, Bedford, USA). The blots were blocked with TBST containing 5% skim milk for 1 h, after which the membranes were incubated overnight at 4°C with primary antibodies against cleaved caspase-3 (#9664), PARP (#9542, Cell Signaling Technology, MA, USA), HMGB1 (ab18256, Abcam, Cambridge, UK), and GAPDH (SC-25778, Santa Cruz, CA, USA). The blots were then washed with TBST buffer and incubated with a secondary horseradish peroxidase-conjugated antibody (Santa Cruz, CA, USA). The reaction was detected using a Clarity™ Western ECL Substrate (BioRad, CA, USA).

O=c1[nH]cc(F)c(=O)[nH]1 [5-FU]
cell viability ([1]; 6 h, Figure 4D): no effect on cell viability
cell viability ([1]; 24 h, Figure 4E): no effect on cell viability

CC(C)S(=O)(=O)c1ccc2nccc(Nc3ccc4scnc4c3)c2c1 [GSK΄872]
protective effect on HPA3P-mediated cytotoxicity ([2]; pretreated with 3 μM GSK΄872 for 2 h, then HPA3P for 24 h, Figure 5G): inhibited HPA3P-induced cytotoxicity
restoration of cell viability in HPA3P-treated cells [2]: restored cell viability
PI staining, gate P1 [3]: 91.47%
PI staining, gate P2 [3]: 7.34%
effect on HPA3P-induced increases in RIPK3 expression [4]: inhibited

CN1C(=O)NC(Cc2c[nH]c3c(Cl)cccc23)C1=O (centres unmarked) [Nec-1s]
restoration of cell viability in HPA3P-treated cells [2]: did not restore cell viability

O=C1[O][Pt]2([NH][C@@H]3CCCC[C@H]3[NH]2)[O]C1=O [oxaliplatin, Oxaliplatin]
cell viability ([1]; 6 h, Figure 4D): no effect on cell viability
cell viability [5]: significant decrease in cell viability
cell viability [6]: reduced cell viability only slightly
cell viability [7]: significant decrease in cell viability
cell viability ([2]; 24 h, Figure 4E): significant decrease in cell viability

CN[C@@H]1C[C@H]2O[C@@](C)([C@@H]1OC)n1c3ccccc3c3c4c(c5c6ccccc6n2c5c31)C(=O)NC4 [staurosporine]
cleaved-caspase 3 and cleaved-PARP [8]: detected
